A word on the kon: it is the second-order rate constant of association.

This experiment deals with T1, Bile salt-activated lipase (Bos taurus, UniProt P30122).
T1 sequence (P30122 whole entry): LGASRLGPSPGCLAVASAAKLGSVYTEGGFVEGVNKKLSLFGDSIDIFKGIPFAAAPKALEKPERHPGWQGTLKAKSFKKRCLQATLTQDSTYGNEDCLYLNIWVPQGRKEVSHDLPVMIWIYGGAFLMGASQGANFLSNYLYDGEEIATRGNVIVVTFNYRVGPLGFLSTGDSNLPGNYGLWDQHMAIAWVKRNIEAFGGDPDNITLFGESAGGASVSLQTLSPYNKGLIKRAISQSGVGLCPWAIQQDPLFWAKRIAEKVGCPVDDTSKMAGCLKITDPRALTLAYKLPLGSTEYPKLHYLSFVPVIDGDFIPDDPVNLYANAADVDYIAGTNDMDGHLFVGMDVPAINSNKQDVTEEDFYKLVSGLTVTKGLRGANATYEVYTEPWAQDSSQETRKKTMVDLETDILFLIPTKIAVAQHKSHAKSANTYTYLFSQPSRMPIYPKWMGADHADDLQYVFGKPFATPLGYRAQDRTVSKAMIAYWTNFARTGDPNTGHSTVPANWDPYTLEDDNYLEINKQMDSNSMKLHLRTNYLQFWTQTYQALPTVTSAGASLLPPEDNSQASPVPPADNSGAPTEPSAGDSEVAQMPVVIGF
In words: Bimolecular rate constant (ki) for the Pancreatic cholesterol esterase-catalyzed hydrolysis of 4-nitrophenyl butyrate. The note with it: for kon: read-out: kon (M-1-s-1).

Consider `CCCCNC(=O)Oc1ccc2ccccc2c1-c1c(OC(=O)NCCCC)ccc2ccccc12` [Butyl-carbamic acid 2'-butylcarbamoyloxy-[1,1']binaphthalenyl-2-yl ester], for which the “kon (M-1-s-1)” value is recorded as 4000 M-1-s-1 and the kon is 4000 M⁻¹ s⁻¹.
For `CCCCNC(=O)Oc1ccc2ccccc2c1-c1c(O)ccc2ccccc12` [Butyl-carbamic acid 2'-hydroxy-[1,1']binaphthalenyl-2-yl ester], the “kon (M-1-s-1)” value is given as 500000.000000 M-1-s-1 and the kon was determined as 500000 M⁻¹ s⁻¹.
As to `CCCCNC(=O)Oc1ccc2ccccc2c1-c1c(OC(=O)CCC)ccc2ccccc12` [Butyric acid 2'-butylcarbamoyloxy-[1,1']binaphthalenyl-2-yl ester], the “kon (M-1-s-1)” value is 6000 M-1-s-1 and the kon was found to be 6000 M⁻¹ s⁻¹.
